Measurements as given in patent US6156789A, “Method for treating abnormal cell proliferation in the brain” (Rhone-Poulenc Rorer S.A., priority 1998, dated 2000).
Where two headings read alike, the source gives them in different places.

Assay: Tissue distribution of Compound A in mice with mammary C/16 adenocarcinomas (first method: liver, heart, kidney, lung, spleen, tumor)
Format: in vivo, C3H/HeN female mice
Details: for Kp at 1 h / Kp at 14 h / half-life / Tmax / Kp at 0.033 h / Kp at 0.083 h / Kp at 0.25 h / Kp at 4 h / Kp at 0.5 h / Kp at 24 h / Kp at 0.75 h: mouse, iv; for Kp at 0.5 h: 0.50 h
Method: Mammary C/16 adenocarcinomas were implanted in C3H/HeN female mice. At least 7 days later, 4α,10β-diacetoxy-2α-benzoyloxy-5β,20-epoxy-1β-hydroxy-7β,8β-methylene-9-oxo-19-nor-11-taxen-13α-yl (2R,3S)-3-tert-butoxycarbonylamino-2-hydroxy-3-phenylpropionate ("Compound A") was administered to groups of female mice at doses of 9.5, 15.4, 24.8, 40 or 60.5 mg/kg by intravenous injection under 0.4 or 0.5 ml/injection over 15 seconds. The body weight and date of implantation were recorded for each mouse. Blood and tissue samples were taken 2, 5, 15, 30 and 45 minutes and 1, 4, 14, 24 and 48 hours, after administration. The plasma was separated from the blood samples at 4° C. and frozen immediately. The tissue and tumors were weighed and frozen immediately (-20° C.).
The plasma and tissue samples were then analyzed for the concentration of Compound A. The plasma was assayed by high pressure liquid chromatography with spectrophotometric detection. For the tissue, liver, heart, kidney, lung, spleen and tumor tissue, samples were assayed by a first method, while a second method was used for the brain tissue analyzed. In the first method, 0.2 g of tissue was combined with 2 ml of sodium phosphate buffer 0.1 M (pH:7) and homogenized. The homogenate was centrifuged and 0.5 ml of supernatant was injected into the chromatographic column. In the second method, 10 μl of standard solution was combined with 0.2 g of brain tissue. 2 ml of methanol/5% perchloric acid (50/50) were added and the mixture was homogenized. The homogenate was centrifuged and 100 μl of supernatant was injected into the chromatographic column.

[1] = kidney/plasma, 40 mg/kg, 40 μg/kg [sic], mice with tumors, single mice, read-out: Tissue/Plasma Ratio, KIDNEY
[2] = liver/plasma, 40 mg/kg, mice with tumors, single mice, read-out: Tissue/Plasma Ratio, LIVER
[3] = lung/plasma, 40 mg/kg, 40 μg/kg [sic], mice with tumors, single mice, read-out: Tissue/Plasma Ratio, LUNG
[4] = spleen/plasma, 40 mg/kg, mice with tumors, single mice, read-out: Tissue/Plasma Ratio, SPLEEN
[5] = tumor/plasma, 40 mg/kg, mice with tumors, single mice, read-out: Tissue/Plasma Ratio, TUMOR
[6] = tumor/plasma, dose 9.5, single mice, read-out: Tumor/Plasma Ratio
[7] = tumor/plasma, dose 15.4, single mice, MEAN=b373, read-out: Tumor/Plasma Ratio
[8] = tumor/plasma, dose 24.8, single mice, read-out: Tumor/Plasma Ratio
[9] = tumor/plasma, dose 40, single mice, read-out: Tumor/Plasma Ratio
[10] = tumor/plasma, dose 60.5, single mice, read-out: Tumor/Plasma Ratio

CC(=O)O[C@H]1C(=O)[C@]23C[C@H]2C[C@H]2OC[C@@]2(OC(C)=O)[C@H]3[C@H](OC(=O)c2ccccc2)[C@]2(O)C[C@H](OC(=O)[C@H](O)[C@@H](NC(=O)OC(C)(C)C)c3ccccc3)C(C)=C1C2(C)C [Compound A, 4α,10β-diacetoxy-2α-benzoyloxy-5β,20-epoxy-1β-hydroxy-7β,8β-methylene-9-oxo-19-nor-11-taxen-13α-yl (2R,3S)-3-tert-butoxycarbonylamino-2-hydroxy-3-phenylpropionate]
Kp at 1 h [1]: 2.17
Kp at 14 h [1]: 2.56
half-life (liver, 40 mg/kg, 40 mg/kg i.v., read-out: half-life of the distribution phase, liver (converted)): 17.4 min
half-life (liver, 40 mg/kg, read-out: t 1/2, Liver (converted)): 186 min
Tmax (liver, 40 mg/kg i.v., read-out: time of maximum concentration, liver): 4.98 min
Kp at 0.033 h [2]: 1.54
Kp at 0.083 h [2]: 3.07
Kp at 0.25 h [2]: 1.79
Kp at 1 h [2]: 1.71
Kp at 4 h [2]: 0.93
Kp at 14 h (liver/plasma, 40 mg/kg, mice with tumors, single mouse, read-out: Tissue/Plasma Ratio, LIVER): 1.62
half-life (lung, 40 mg/kg, 40 mg/kg i.v., read-out: half-life of the distribution phase, lung (converted)): 20.4 min
half-life (lung, 40 mg/kg, read-out: t 1/2, Lung (converted)): 174 min
Tmax (lung, 40 mg/kg i.v., read-out: time of maximum concentration, lung): 4.98 min
Kp at 0.033 h [3]: 0.33
Kp at 0.083 h [3]: 0.79
Kp at 0.25 h [3]: 0.95
Kp at 0.5 h [3]: 1.27
Kp at 1 h [3]: 1
Kp at 4 h [3]: 1.43
Kp at 14 h [3]: 0.81
half-life (spleen, 40 mg/kg, 40 mg/kg i.v., read-out: half-life of the distribution phase, spleen (converted)): 13.8 min
half-life (spleen, 40 mg/kg, read-out: t 1/2, Spleen (converted)): 450 min
Tmax (spleen, 40 mg/kg i.v., read-out: time of maximum concentration, spleen): 4.98 min
Kp at 0.033 h [4]: 0.46
Kp at 0.25 h [4]: 0.85
Kp at 0.5 h [4]: 1.24
Kp at 1 h [4]: 1.1
Kp at 4 h [4]: 1.72
Kp at 14 h [4]: 2.37
half-life (tissues, 40 mg/kg, 40 mg/kg i.v., tissues other than brain, read-out: half-life in the other tissues): 96 to 558 min
half-life (tissues, 40 mg/kg, 40 mg/kg i.v., tissues tested except tumor and brain, read-out: elimination half-life, slower phase): 96 to 450 min
half-life (tumor, 40 mg/kg, read-out: t 1/2, Tumor (converted)): 558 min
Tmax (tumor, 40 mg/kg i.v., read-out: time of maximum concentration, tumor): 15 min
Kp at 0.033 h [5]: 0.2
Kp at 0.083 h [5]: 0.37
Kp at 0.25 h [5]: 0.58
Kp at 0.5 h [5]: 0.78
Kp at 1 h [5]: 0.95
Kp at 4 h [5]: 1.8
Kp at 24 h [5]: 2.79
Kp at 0.033 h [6]: 0.24
Kp at 0.25 h [6]: 0.51
Kp at 0.75 h [6]: 0.94
Kp at 1 h [6]: 2.02
Kp at 4 h [6]: 3.45
Kp at 0.033 h [7]: 0.23
Kp at 0.083 h [7]: 0.28
Kp at 0.25 h [7]: 0.6
Kp at 0.5 h [7]: 0.97
Kp at 0.75 h [7]: 1.75
Kp at 1 h [7]: 1.83
Kp at 4 h [7]: 1.9
Kp at 0.033 h [8]: 0.13
Kp at 0.083 h [8]: 0.28
Kp at 0.25 h [8]: 0.71
Kp at 0.75 h [8]: 1.14
Kp at 1 h [8]: 1.29
Kp at 4 h [8]: 1.61
Kp at 0.033 h [9]: 0.2
Kp at 0.083 h [9]: 0.37
Kp at 0.25 h [9]: 0.58
Kp at 0.5 h [9]: 0.78
Kp at 1 h [9]: 0.95
Kp at 4 h [9]: 1.8
Kp at 24 h [9]: 2.79
Kp at 0.083 h [10]: 0.19
Kp at 0.25 h [10]: 0.39
Kp at 0.5 h [10]: 0.62
Kp at 4 h [10]: 2.48
Kp at 24 h (tumor/plasma, dose 60.5, single mouse, read-out: Tumor/Plasma Ratio): 13.3
pharmacokinetics in mice with mammary tumors, linearity (range of doses administered): similarly linear
